Experimental data taken from the NIST ThermoML archive (doi:10.1016/j.jct.2015.06.021).
Several values for one entry are separate records, joined by “and”; a condition that tells them apart may be missing. Identical values can stand only once.

Tests used:
[1] = Molar enthalpy of transition or fusion; details: Crystal; DSC
[2] = Crystal; for vapor or sublimation pressure: Calculated from knudsen effusion weight loss; for Normal melting temperature: DTA

c1ccc2cc3ccccc3cc2c1 [anthracene]
Details | Molar enthalpy of transition or fusion [kcal/mol] | Normal melting temperature [°C]
[1] | 6.55 | –
[2] | – | 217

[2]
Details | vapor or sublimation pressure
301.3 K | 1.3e-06 kPa
303.3 K | 1.8e-06 kPa
303.6 K | 1.7e-06 kPa
305.7 K | 2.5e-06 kPa
305.9 K | 2.2e-06 kPa
307.8 K | 3.2e-06 kPa
308.1 K | 3.9e-06 kPa
308.2 K | 3.3e-06 kPa
310 K | 4.3e-06 kPa
310.2 K | 4.2e-06 kPa
310.5 K | 4.5e-06 kPa
313.3 K | 6.5e-06 kPa
314.5 K | 7.3e-06 kPa
314.7 K | 7.4e-06 kPa
314.9 K | 7.6e-06 kPa
317.6 K | 1.05e-05 kPa
318.8 K | 1.1e-05 kPa
319.2 K | 1.28e-05 kPa
322.3 K | 1.81e-05 kPa
323.1 K | 2.05e-05 kPa and 1.74e-05 kPa
323.2 K | 2.12e-05 kPa
323.8 K | 2.09e-05 kPa
326.6 K | 2.96e-05 kPa
328 K | 3.16e-05 kPa
328.6 K | 3.48e-05 kPa
331.5 K | 4.92e-05 kPa
333.1 K | 6.27e-05 kPa
333.3 K | 6.36e-05 kPa
333.7 K | 6.31e-05 kPa
336.3 K | 8.09e-05 kPa
338.2 K | 8.49e-05 kPa
338.8 K | 0.0001028 kPa and 9.99e-05 kPa
343.1 K | 0.000173 kPa and 0.0001738 kPa
343.4 K | 0.0001646 kPa and 0.0001599 kPa
348.1 K | 0.0002492 kPa
348.2 K | 0.0002587 kPa
353.2 K | 0.0004347 kPa
363.2 K | 0.001018 kPa
373.2 K | 0.002158 kPa

c1ccc2c(c1)ccc1ccccc12 [phenanthrene]
Details | Molar enthalpy of transition or fusion [kcal/mol] | Normal melting temperature [°C]
[1] | 3.62 | –
[2] | – | 99

[2]
Details | vapor or sublimation pressure [kPa]
296.2 K | 1.61e-05
297.2 K | 1.86e-05
298.2 K | 2.1e-05
299.2 K | 2.43e-05
300.2 K | 2.7e-05
301.2 K | 3e-05
302.2 K | 3.43e-05
303.2 K | 3.83e-05
304.2 K | 4.3e-05
305.2 K | 4.88e-05
306.2 K | 5.4e-05
307.2 K | 6.08e-05
308.2 K | 6.73e-05
309.2 K | 7.49e-05
310.2 K | 8.41e-05
311.2 K | 9.35e-05
312.2 K | 0.0001041
313.2 K | 0.0001151
